Results published in ChEMBL document CHEMBL2073999, “Vectorial transport by double-transfected cells expressing the human uptake transporter SLC21A8 and the apical export pump ABCC2” (Mol Pharmacol, 2001).

tested on: MDCK-II; test: TP_TRANSPORTER: transepithelial transport in OATP1B3/MRP2 double transfectant (MDCKII); assay type: functional, cell-based

Row | SMILES | Activity
1 | C[C@]12CC[C@H](OS(=O)(=O)O)CC1=CC[C@@H]1[C@@H]2CC[C@]2(C)C(=O)CC[C@@H]12 | substrate []
2 | O=C1OC(c2ccc(O)c(S(=O)(=O)O)c2)(c2ccc(O)c(S(=O)(=O)O)c2)c2c(Br)c(Br)c(Br)c(Br)c21 | substrate []
3 | CCCCC/C=C\C\C=C/C=C/C=C/[C@@H](SC[C@@H](NC(=O)CC[C@H](N)C(=O)O)C(=O)NCC(=O)O)[C@@H](O)CCCC(=O)O | substrate []
4 | C[C@]12CC[C@@H]3c4ccc(O)cc4CC[C@H]3[C@@H]1CC[C@@H]2O[C@@H]1O[C@H](C(=O)O)[C@@H](O)[C@H](O)[C@H]1O | substrate []
5 | Cc1ccc(N(CC(=O)O)CC(=O)O)c(OCCOc2cc(-c3c4cc(Cl)c(=O)cc-4oc4cc(O)c(Cl)cc34)ccc2N(CC(=O)O)CC(=O)O)c1 | substrate []
6 | CO[C@H]1/C=C/O[C@@]2(C)Oc3c(C)c(O)c4c(O)c(c(/C=N/N5CCN(C)CC5)c(O)c4c3C2=O)NC(=O)/C(C)=C\C=C\[C@H](C)[C@H](O)[C@@H](C)[C@@H](O)[C@@H](C)[C@H](OC(C)=O)[C@@H]1C | substrate []
